In patent US11254640B2, “N-substituted indoles and other heterocycles for treating brain disorders” (The Regents of the University of California, priority 2019, dated 2022):
Entries after “also recorded” stand apart in the source; their conditions may differ. Structures can show the parent of a compound that is named as a salt. Where two headings read alike, the source gives them in different places.

Tests used:
[1] = tested on: cortical neurons; assay: Dendritogenesis assay, Sholl analysis; assay type: cell-based, rat; conditions: for Emax at 10 µM: Rattus norvegicus, Cortical neurone, Nmax with vehicle (DMSO) = 0% and ketamine = 100%, read-out: % efficacy in sholls; for dendritic arbor complexity / neuronal growth (Nmax of Sholl plots): cortical neurons; for Emax at 10 µM / dendritic arbor complexity / neuronal growth (Nmax of Sholl plots): 10 μM
From the text: Dendritogenesis Assays. Phenotypic screening has historically proven more successful than target-based approaches for identifying drugs with novel mechanisms of action. Having established a simple and robust method for accessing isoDMT analogs, tested next was their ability to increase dendritic arbor complexity in cultures of cortical neurons using a phenotypic assay. Following treatment, neurons were fixed and visualized using an antibody against MAP2—a cytoskeletal protein localized to the somatodendritic compartment of neurons. Sholl analysis was then performed, and the maximum number of crossings (Nmax) was used as a quantitative metric of dendritic arbor complexity. For statistical comparisons between specific compounds, the raw Nmax values were compared. Percent efficacies were determined by setting the Nmax values for the vehicle (DMSO) and positive (ketamine) controls equal to 0% and 100%, respectively.
Animals. For the dendritogenesis experiments, timed pregnant Sprague Dawley rats were obtained from Charles River Laboratories (Wilmington, Mass.). For the head-twitch response assay, male and female C57BL/6J mice were obtained from Jackson Laboratory (Sacramento, Calif.). Mice were housed in a temperature and humidity-controlled room maintained on a 12-h light/dark cycle in groups of 4-5 (same sex). Animals weighed between 17 and 30 g at the time of the experiments. All experimental procedures involving rodents were approved by the UC Davis Institutional Animal Care and Use Committee (IACUC) and adhered to principles described in the National Institutes of Health Guide for the Care and Use of Laboratory Animals. The University of California, Davis and the University of California, San Francisco are accredited by the Association for Assessment and Accreditation of Laboratory Animal Care International (AAALAC).
Dendritogenesis—Sholl Analysis. Dendritogenesis experiments were performed following a previously published method with slight modifications. Neurons were plated in 96-well format (200 μL of media per well) at a density of approximately 15,000 cells/well in Neurobasal (Life Technologies) containing 1% penicillin-streptomycin, 10% heat-inactivated fetal bovine serum, and 0.5 mM glutamine. After 24 h, the medium was replaced with Neurobasal containing 1× B27 supplement (Life Technologies), 1% penicillin-streptomycin, 0.5 mM glutamine, and 12.5 μM glutamate. After 3 days in vitro (DIV3), the cells were treated with compounds. All compounds tested in the dendritogenesis assays were treated at 10 μM unless noted otherwise. Stock solutions of the compounds in DMSO were first diluted 100-fold in Neurobasal before an additional 10-fold dilution into each well (total dilution=1:1000; 0.1% DMSO concentration). Treatments were randomized. After 1 h, the media was removed and replaced with new Neurobasal media containing 1× B27 supplement, 1% penicillin-streptomycin, 0.5 mM glutamine, and 12.5 μM glutamate. The cells were allowed to grow for an additional 71 h. At that time, neurons were fixed by removing 80% of the media and replacing it with a volume of 4% aqueous paraformaldehyde (Alfa Aesar) equal to 50% of the working volume of the well. Then, the cells were incubated at room temperature for 20 min before the fixative was aspirated and each well washed twice with DPBS. Cells were permeabilized using 0.2% Triton X-100 (ThermoFisher) in DPBS for 20 minutes at room temperature without shaking. Plates were blocked with antibody diluting buffer (ADB) containing 2% bovine serum albumin (BSA) in DPBS for 1 h at room temperature. Then, plates were incubated overnight at 4° C. with gentle shaking in ADB containing a chicken anti-MAP2 antibody (1:10,000; EnCor, CPCA-MAP2). The next day, plates were washed three times with DPBS and once with 2% ADB in DPBS. […]

[2] = tested on: 5HT2A sensor; assay: 5HT2A sensor assay, antagonist mode (sLight1.3s HEK293T stable line); assay type: cell-based; conditions: relative to 5-HT at 100 nM
Procedure, shortened: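 Inactivation score is computed from membrane dFF as (dFF(compound+5HT)−dFF(5HT))/dFF(5HT), with HBSS-only fluorescence as Fapo. Final concentrations: 5-HT 100 nM added first, then compound at 100 nM, 10 μM or 100 μM in 0.1% DMSO. Triplicates; FITC imaging, 5 fields per well.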

[3] = tested on: rat cortical neurons; assay: Neurite outgrowth assay; assay type: cell-based; conditions: Cortical neurone, 1 hour treatment at DIV 4, analysed DIV 7, fold vs DMSO control
Procedure, shortened: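 Embryonic day 18 rat cortical neurons, 20,000 cells/well in Neurobasal/B27, were exposed at DIV 4 to 10 μM compound for 1 hour, then washed out. At DIV 7, β-III-tubulin immunostaining and automated imaging gave neurite length, branch points, root and extremity counts, reported as fold-change versus DMSO; triplicates.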

[4] = tested on: 5HT2A sensor; assay: 5HT2A sensor assay, agonist mode (sLight1.3s HEK293T stable line); assay type: cell-based; conditions: percent relative to 5-HT at 100 uM
Procedure, shortened: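 Agonist mode in HEK293T cells stably expressing the sLight1.3 5HT2A sensor, washed into HBSS; compounds at final 100 μM, 10 μM and 100 nM (0.1% DMSO), triplicate wells. Membrane fluorescence (ex 460, em 512-542 nm) imaged before and after addition; dFF=(Fsat−Fapo)/Fapo, expressed as percent activation (DMSO=0, 5HT=100).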

[5] = target: T1, 5HT2A (Homo sapiens, UniProt P28223); assay: Calcium flux assay (Calcium secondary messenger pathway); assay type: cell-based; conditions: agonist mode
T1 construct: expressed in transfected cells
T1 sequence (P28223 whole entry): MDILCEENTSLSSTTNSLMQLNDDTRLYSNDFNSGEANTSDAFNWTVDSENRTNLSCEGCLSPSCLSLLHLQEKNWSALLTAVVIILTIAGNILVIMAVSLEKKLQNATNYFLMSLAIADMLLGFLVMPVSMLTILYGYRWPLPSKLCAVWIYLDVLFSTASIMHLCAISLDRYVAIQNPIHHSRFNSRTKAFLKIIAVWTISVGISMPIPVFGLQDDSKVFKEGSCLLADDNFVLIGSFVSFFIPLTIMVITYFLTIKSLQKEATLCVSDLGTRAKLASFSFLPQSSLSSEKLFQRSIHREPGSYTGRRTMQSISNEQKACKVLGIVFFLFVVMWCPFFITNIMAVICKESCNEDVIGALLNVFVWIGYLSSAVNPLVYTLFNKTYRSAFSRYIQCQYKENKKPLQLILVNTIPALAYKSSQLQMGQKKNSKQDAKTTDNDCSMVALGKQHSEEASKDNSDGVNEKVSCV
Procedure, shortened: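 Gq-coupled calcium mobilization in cells stably expressing 5HT2A, loaded 30–60 min at 37 °C with calcium-sensitive dye in HBSS/20 mM Hepes with 2.5 mM probenecid. Compound added 5 s into a 2-min FLIPR Tetra fluorescence read at room temperature; % activity relative to vehicle and maximal control-ligand RFU.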

| SMILES | melting point [°C] | Emax at 10 µM [1] [%] | dendritic arbor complexity / neuronal growth (Nmax of Sholl plots) [1] | other results |
| --- | --- | --- | --- | --- |
| CN(C)CCn1ccc2c(OCc3ccccc3)cccc21 (as salt: fumarate) [Example 8, 2-(4-(benzyloxy)-1H-indol-1-yl)-N,N-dimethylethan-1-amine] | 145 to 150 | – | – | – |
| CN(C)CCn1ccc2cc(OCc3ccccc3)ccc21 (as salt: fumarate) [Example 9, 2-(5-(benzyloxy)-1H-indol-1-yl)-N,N-dimethylethan-1-amine] | 133 to 135 | – | – | – |
| CN(C)CCn1ccc2c(F)cccc21 (as salt: fumarate) [Example 12, 2-(4-fluoro-1H-indol-1-yl)-N,N-dimethylethan-1-amine] | 145 to 149 | – | – | – |
| CN(C)CCn1ccc2cc(F)ccc21 (as salt: fumarate) [Example 13, 2-(5-fluoro-1H-indol-1-yl)-N,N-dimethylethan-1-amine] | 145 to 148 | – | – | – |
| CN(C)CCn1ccc2cccc(F)c21 (as salt: fumarate) [Example 15, 2-(7-fluoro-1H-indol-1-yl)-N,N-dimethylethan-1-amine] | 168 to 170 | – | – | – |
| CN(C)CCn1ccc2cc(F)c(F)cc21 (as salt: fumarate) [Example 17, 2-(5,6-difluoro-1H-indol-1-yl)-N,N-dimethylethan-1-amine] | 162 to 165 | – | – | – |
| CN(C)CCn1ccc2c(F)cc(F)cc21 (as salt: fumarate) [Example 18, 2-(4,6-difluoro-1H-indol-1-yl)-N,N-dimethylethan-1-amine] | 141 to 145 | – | – | – |
| CN(C)CCn1cccc1 (as salt: fumarate) [Example 23, N,N-dimethyl-2-(1H-pyrrol-1-yl)ethan-1-amine] | 174 to 180 | – | – | – |
| CN(C)CCc1cn(C)c2ccccc12 (as salt: fumarate) [Example 27, N,N-dimethyl-2-(1-methyl-1H-indol-3-yl)ethan-1-amine] | 167 to 170 | – | – | – |
| CN(C)CCn1ccc2ccccc21.O=C(O)/C=C/C(=O)O [Example 2, 2-(1H-indol-1-yl)-N,N-dimethylethan-1-amine] | 147 to 149 | 87 | increase dendritic arbor complexity to a comparable extent as DMT (1); also recorded: increased dendritic arbor complexity to a comparable extent as 1 | psychoplastogenic efficacy and potency, concentration-response (Nmax) ([1]; concentrations ranging from 10 μM to 10 pM (FIG. 6)): comparable maximum efficacies and had similar potencies as isosteric DMTs (1 and 28) |
| CN(C)CCn1ccc2ccc(F)cc21.O=C(O)/C=C/C(=O)O [Example 14, 2-(6-fluoro-1H-indol-1-yl)-N,N-dimethylethan-1-amine] | 141 to 147 | 88 | – | – |
| Cc1cc2ccccc2n1CCN(C)C.O=C(O)/C=C/C(=O)O [Example 16, N,N-dimethyl-2-(2-methyl-1H-indol-1-yl)ethan-1-amine] | 131 to 133 | 104 | well tolerated | – |
| CN(C)CCn1ccc2ccc([N+](=O)[O-])cc21.O=C(O)/C=C/C(=O)O [Example 19, N,N-dimethyl-2-(6-nitro-1H-indol-1-yl)ethan-1-amine] | 159 to 164 | 85 | – | – |
| CN(C)CCn1ccc2cc(Br)ccc21.O=C(O)/C=C/C(=O)O [Example 20, 2-(5-bromo-1H-indol-1-yl)-N,N-dimethylethan-1-amine] | 140 to 142 | 117 | – | – |
| CN(C)CCn1cnc2ccccc21.O=C(O)/C=C/C(=O)O [Example 22, 2-(1H-benzo[d]imidazol-1-yl)-N,N-dimethylethan-1-amine] | 171 to 178 | 50 | minimal effect on the ability of these molecules to promote neuronal growth | – |
| CN(C)CCn1c2ccccc2c2ccccc21.O=C(O)/C=C/C(=O)O [Example 24, 2-(9H-carbazol-9-yl)-N,N-dimethylethan-1-amine] | 182 to 184 | 86 | minimal effect on the ability of these molecules to promote neuronal growth | – |
| CN(C)CCCn1ccc2ccccc21.O=C(O)/C=C/C(=O)O [Example 26, 3-(1H-indol-1-yl)-N,N-dimethylpropan-1-amine] | 129 to 131 | 70 | only a slight decrease in the Nmax value | – |
| CN(C)C(=O)Cn1ccc2ccccc21 [Example 31, 2-(1H-indol-1-yl)-N,N-dimethylacetamide] | 58 to 61 | – | did not promote neuronal growth | – |
| COc1ccc2c(ccn2CCN2CC3(COC3)C2)c1 [Example 84, 6-(2-(5-methoxy-1H-indol-1-yl)ethyl)-2-oxa-6-azaspiro[3.3]heptane] | – | – | – | 5HT2A Antagonist mean @ 100 nM (%) ([2]; 100 nM compound): B (inhibits 5HT response by 75% to 100%); 5HT2A Antagonist mean @ 10 μM (%) ([2]; 10 μM compound): B (inhibits 5HT response by 75% to 100%); 5HT2A Antagonist mean @ 100 μM (%) ([2]; 100 μM compound): B (inhibits 5HT response by 75% to 100%); fold induction at 10 µM ([3]; read-out: Neurite Average Length @ 10 μM): 1.5 to 3; fold induction at 10 µM ([3]; read-out: Neurite Branch Points: @ 10 μM): 1.5 to 3; 5HT2A Agonist mean @ 100 nM (%) ([4]; 100 nM compound): B (does not activate 5HT2A sensor assay in agonist mode); 5HT2A Agonist mean @ 10 μM (%) ([4]; 10 μM compound): B (does not activate 5HT2A sensor assay in agonist mode); 5HT2A Agonist mean @ 100 μM (%) ([4]; 100 μM compound): A (activates 5HT2A sensor assay in agonist mode); EC50 [5]: > 10 µM |
